Source: ChEMBL document CHEMBL2417448, “Cytotoxic triterpenoids from Lysimachia parvifolia” (Eur J Med Chem, 2013)
pIC50: −log10 of the molar value.

Legend:
Type in all cases: functional, cell-based
HepG2 = test: Cytotoxicity against human HepG2 cells after 24 hrs by MTT assay; conditions: HepG2, 24 h
HL-60 = test: Cytotoxicity against human HL60 cells after 24 hrs by MTT assay; conditions: HL-60, 24 h
U-266 = test: Cytotoxicity against human U266 cells after 24 hrs by MTT assay; conditions: U-266, 24 h
A549 = test: Cytotoxicity against human A549 cells after 24 hrs by MTT assay; conditions: A549, 24 h
[1] = Cytotoxicity against human Bel7404 cells after 24 hrs by MTT assay; conditions: BEL-7404, 24 h
SGC-7901 = test: Cytotoxicity against human SGC7901 cells after 24 hrs by MTT assay; conditions: SGC-7901, 24 h

CC1(C)C[C@@H]2[C@]3(CO[C@@]24CC[C@@H]2[C@@]5(C)CC[C@H](O)[C@@](C)(CO)[C@@H]5CC[C@@]2(C)[C@]4(C)CC3=O)[C@@H](O)C1
pIC50 (HepG2): < 4.00 | pIC50 (HL-60): < 4.00 | pIC50 (U-266): < 4.00 | pIC50 (A549): < 4.00 | pIC50 [1]: < 4.00 | pIC50 (SGC-7901): < 4.00

CC1(C)C[C@@H]2[C@]3(CO[C@@]24CC[C@@H]2[C@@]5(C)CCC(=O)[C@@](C)(CO)[C@@H]5CC[C@@]2(C)[C@]4(C)CC3=O)[C@@H](O)C1
pIC50 (HepG2): < 4.00 | pIC50 (HL-60): < 4.00 | pIC50 (U-266): < 4.00 | pIC50 (A549): < 4.00 | pIC50 [1]: < 4.00 | pIC50 (SGC-7901): < 4.00

CC(=O)O[C@H]1CC(C)(C)C[C@@H]2[C@]13CO[C@@]21CC[C@@H]2[C@@]4(C)CC[C@H](O[C@@H]5OC[C@H](O[C@@H]6O[C@H](CO)[C@@H](O)[C@H](O)[C@H]6O)[C@H](O)[C@H]5O[C@@H]5O[C@H](CO)[C@@H](O)[C@H](O)[C@H]5O[C@@H]5OC[C@@H](O)[C@H](O)[C@H]5O)C(C)(C)[C@@H]4CC[C@@]2(C)[C@]1(C)C[C@H]3O
pIC50 (HepG2): 5.31 | pIC50 (HL-60): 5.17 | pIC50 (U-266): 5.05 | pIC50 (A549): 5.28 | pIC50 [1]: 5.23 | pIC50 (SGC-7901): 5.11

CC1(C)CC[C@]23CO[C@@]4(CC[C@@H]5[C@@]6(C)CC[C@H](O[C@@H]7OC[C@H](O)[C@H](O)[C@H]7O)[C@@](C)(CO)[C@@H]6CC[C@@]5(C)[C@]4(C)CC2=O)[C@@H]3C1 [ANAGALLIGENONE-3-O-ALPHA-L-ARABINOPYRANOSIDE]
pIC50 (HepG2): 4.26 | pIC50 (HL-60): < 4.00 | pIC50 (U-266): 4.02 | pIC50 (A549): 4.07 | pIC50 [1]: 4.12 | pIC50 (SGC-7901): < 4.00

CC1(C)CC[C@]23CO[C@@]4(CC[C@@H]5[C@@]6(C)CC[C@H](O[C@@H]7OC[C@H](O[C@@H]8O[C@H](CO)[C@@H](O)[C@H](O)[C@H]8O)[C@H](O)[C@H]7O)[C@@](C)(CO)[C@@H]6CC[C@@]5(C)[C@]4(C)CC2=O)[C@@H]3C1 [ANAGALLIGENONE-3-O-[BETA-D-GLUCOPYRANOSYL(1->4)-ALPHA-L-ARABINOPYRANOSIDE]
pIC50 (HepG2): 4.79 | pIC50 (HL-60): 4.79 | pIC50 (U-266): 4.86 | pIC50 (A549): 4.84 | pIC50 [1]: 4.76 | pIC50 (SGC-7901): 4.72

CC1(C)CC[C@]23CO[C@@]4(CC[C@@H]5[C@@]6(C)CC[C@H](O[C@@H]7OC[C@H](O[C@@H]8O[C@H](CO)[C@@H](O)[C@H](O)[C@H]8O[C@@H]8OC[C@@H](O)[C@H](O)[C@H]8O)[C@H](O)[C@H]7O)[C@@](C)(CO)[C@@H]6CC[C@@]5(C)[C@]4(C)CC2=O)[C@@H]3C1 [ANAGALLIGENONE-3-O-[BETA-D-XYLOPYRANOSYL(1->2)-BETA-D-GLUCOPYRANOSYL(1->4)-ALPHA-L-ARABINOPYRANOSIDE]]
pIC50 (HepG2): 5.05 | pIC50 (HL-60): 4.99 | pIC50 (U-266): 4.98 | pIC50 (A549): 4.96 | pIC50 [1]: 5.04 | pIC50 (SGC-7901): 5.03
